According to patent publication US20130052145A1, “ADHESIVE SLOW-RELEASE FORMULATIONS FOR THE LOCAL ADMINISTRATION OF CURCUMIN” (Orphanidis Pharma Research GmbH, priority 2010, published 2013):

What was measured:
[1] = Storage stability of liquid curcumin formulations under accelerated conditions (HPLC); type: physicochemical
[2] = Solubility studies with curcumin in organic solvents and solvent + water mixtures; type: physicochemical
Method: For oral solutions, curcumin must be dissolved. The solvents listed in Table 1 have been tested for this purpose. The maximum concentration of curcumin that could be dissolved is listed for each solvent. If curcumin was soluble, water was added to the solvents and the solubility in this mixture was also determined: […]

Stability in storage of curcumin in PEG formulations [1]: comparatively high stability in storage
% Solubility (w/v) ([2]; Collidone 12 + water 4 + 6): 0 % (w/v)
% Solubility (w/v) ([2]; Collidone12 + water 5 + 5): 0 % (w/v)
% Solubility (w/v) ([2]; Collidone 17 + water 4 + 6): 0 % (w/v)
% Solubility (w/v) ([2]; Collidone 17 + water 5 + 5): 0 % (w/v)
% Solubility (w/v) ([2]; N-Ethyl-2-pyrrolidone + water 6 + 4): 4 % (w/v)
% Solubility (w/v) ([2]; N-Ethyl-2-pyrrolidone + water 7 + 3): 5 % (w/v)
% Solubility (w/v) ([2]; N-Methyl-2-pyrrolidone + water 6 + 4): 4 % (w/v)
% Solubility (w/v) ([2]; N-Methyl-2-pyrrolidone + water 7 + 3): 4 % (w/v)
% Solubility (w/v) ([2]; PEG 300 + water 8 + 2): 2.5 % (w/v)
% Solubility (w/v) ([2]; PEG 300 + water 9 + 1): 2.5 % (w/v)
% Solubility (w/v) ([2]; PVP + water 3 + 7): 0 % (w/v)
% Solubility (w/v) ([2]; Pluronic F-68 + water 3 + 7): 0 % (w/v)
% Solubility (w/v) ([2]; Pyrrolidone + water 1 + 9): 1 % (w/v)
% Solubility (w/v) ([2]; Pyrrolidone + water 5 + 5): 2.5 % (w/v)
% Solubility (w/v) ([2]; Pyrrolidone + water 6 + 4): 3 % (w/v)
% Solubility (w/v) ([2]; Pyrrolidone + water 7 + 3): 5 % (w/v)
% Solubility (w/v) ([2]; Pyrrolidone + water 9 + 1): 5 % (w/v)
% Solubility (w/v) ([2]; solvent Capmul): 0 % (w/v)
% Solubility (w/v) ([2]; solvent Cremophor): 0 % (w/v)
% Solubility (w/v) ([2]; solvent Dimethylacetamide): 4 % (w/v)
% Solubility (w/v) ([2]; solvent Glycerol): 0 % (w/v)
% Solubility (w/v) ([2]; solvent Hydrogenated peanut oil): 0 % (w/v)
% Solubility (w/v) ([2]; solvent Labrafil): 3 % (w/v)
% Solubility (w/v) ([2]; solvent Labrasol): 0 % (w/v)
% Solubility (w/v) ([2]; solvent N-Ethyl-2-pyrrolidone): 30 % (w/v)
% Solubility (w/v) ([2]; solvent N-Methyl-2-pyrrolidone): 30 % (w/v)
% Solubility (w/v) ([2]; solvent PEG 300): 2.5 % (w/v)
% Solubility (w/v) ([2]; solvent PVA): 0 % (w/v)
% Solubility (w/v) ([2]; solvent Pluronic L44): 3 % (w/v)
% Solubility (w/v) ([2]; solvent Propylene glycol): 0 % (w/v)
% Solubility (w/v) ([2]; solvent Pyrrolidone): 20 % (w/v)
% Solubility (w/v) ([2]; solvent Refined corn oil): 0 % (w/v)
Structure (SMILES): COc1cc(/C=C/C(=O)CC(=O)/C=C/c2ccc(O)c(OC)c2)ccc1O [curcumin]
